Reference: patent publication US7629150B2, “Transformed cell harboring DNA or RNA encoding sugar chain synthesizing agent having β1,3-N-acetylglucosaminyltransferase activity” (Kyowa Hakko Kirin Co., Ltd., priority 2000, dated 2009)

Key:
Type in all cases: biochemical
[1] = target: T1, G6sec2 (Homo sapiens, UniProt Q9BYG0); experiment: β1,3-N-acetylglucosaminyltransferase activity using glycolipids as substrates (purified enzyme); conditions: glycolipid substrate; purified G6sec2
T1 construct: made in house; host or cells: Sf21 insect cells infected with pVL1393-F2G6sec2-derived recombinant baculovirus
T1 sequence (Q9BYG0 39-378): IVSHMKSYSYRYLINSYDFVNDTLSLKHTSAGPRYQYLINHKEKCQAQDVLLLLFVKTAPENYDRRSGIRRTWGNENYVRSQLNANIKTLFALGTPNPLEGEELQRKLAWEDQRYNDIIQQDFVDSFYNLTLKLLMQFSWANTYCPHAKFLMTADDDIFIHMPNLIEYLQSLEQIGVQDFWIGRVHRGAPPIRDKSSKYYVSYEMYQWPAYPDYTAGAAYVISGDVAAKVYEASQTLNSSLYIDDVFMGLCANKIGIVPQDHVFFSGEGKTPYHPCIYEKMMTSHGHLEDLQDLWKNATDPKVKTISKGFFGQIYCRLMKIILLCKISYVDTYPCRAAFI
Protocol: Using glycolipids as the substrate, β1,3-N-acetylglucosaminyltransferase activity of the G6 polypeptide was measured according to known methods [FEBS, 462, 289 (1999), J. Biol. Chem., 269, 14730-14737 (1994), J. Biol. Chem., 267, 23507 (1992), J. Biol. Chem., 267, 2994 (1992)]. Specifically, the reaction was carried out at 37° C. for 16 hours in 20 μl of a reaction solution [150 mmol/l sodium cacodylate (pH 7.2), 10 mmol/l UDP-GlcNAc (manufactured by SIGMA), 480 μmol/l UDP—[^14C]GlcNAc (manufactured by Amersham), 0.4% Triton CF-54, 10 mmol/l MnCl2, […] glycolipid, purified enzyme (G6sec2)]. As the purified enzyme (G6sec2), 10 μl of the enzyme obtained in the above (2) was used. As glycolipids, lactosylceramide, paragloboside, galactosylceramide (Type I) and galactosylceramide (Type II) were used. Paragloboside was obtained from Yasunori Kushi at Tokyo Medical and Dental University. Other glycolipids were purchased from SIGMA. After completion of the reaction, 200 μl of 0.1 mol/l KCl was added and lightly centrifuged to obtain the supernatant. The supernatant was passed through Sep-Pak plus C18 Cartridge (manufactured by Waters) which had been washed once with 10 ml of methanol and equilibrated by washing twice with 10 ml of 0.1 mol/l KCl to adsorb the glycolipid in the supernatant onto the cartridge. After washing the cartridge twice with 10 ml of pure water for HPLC, the adsorbed glycolipid was eluted with 5 ml of methanol. After concentrating the eluate to about 10 μl using a vacuum dryer, the concentrated solution was plotted on a TLC plate (HPTLC plate Silica gel 60: manufactured by MERCK) and developed using a developing solvent comprising a composition of chloroform:methanol:water (containing 0.2% CaCl2)=65:35:8. After the development was carried out to a position 5 mm from the upper end of the TLC plate, the plate was dried and then the radioactivity incorporated into the glycolipid was measured using Bio Image Analyzer BAS 2000 (manufactured by Fuji Photo Film).

[2] = target: T1, G6sec2; experiment: β1,3-N-acetylglucosaminyltransferase activity using pyridylaminated oligosaccharides as substrates; conditions: pyridylaminated oligosaccharides 50 μmol/l, 37° C., 14.5 hours, LNnT defined as 100%
Protocol: After carrying out the reaction at 37° C. for 14.5 hours in 30 μl of an assay solution [150 mmol/l sodium cacodylate (pH 7.2), 50 mmol/l UDP-GlcNAc (manufactured by SIGMA), 0.4% Triton CF-54, 10 mmol/l MnCl2, 50 μmol/l pyridylaminated sugar chain substrate, a purified enzyme solution (G6sec2)], the product was detected by HPLC. The purified enzyme (G6sec2) was obtained according to the method shown in Example 8(6). The purified enzyme (280 μl) was prepared from 30 ml of a culture supernatant of Sf21 infected with the recombinant virus derived from pVL1393-F2G6sec2, and the assay was carried out using 5 μl thereof. As substrates, LnNT, lacto-N-tetraose (Galβ1-3GlcNAcβ1-3Galβ1-4Glc (hereinafter referred to as “LNT”), lacto-N-fucopentaose II (Galβ1-3(Fucα1-4)GlcNAcβ1-3Galβ1-4Glc; hereinafter referred to as “LNFP-II”), lacto-N-fucopentaose III (Galβ1-4(Fucα1-3)GlcNAcβ1-3Galβ1-4Glc; hereinafter referred to as “LNFP-III”), lacto-N-fucopentaose V (Galβ1-3GlcNAcβ1-3Galβ1-4(Fucα1-3)Glc; hereinafter referred to as “LNFP-V”), and lacto-N-difucohexaose II (Galβ1-3(Fucα1-4)GlcNAcβ1-3Galβ1-4(Fucα1-3)Glc; hereinafter referred to as “LNDFH-II”) (all manufactured by Oxford Glycosystems) were fluorescently-labeled with aminopyridine and used. The substrates were fluorescently-labeled according to a conventional method [Agric. Biol. Chem., 54, 2169 (1990)].
After carrying out the reaction on each substrate using an assay solution containing UDP-GlcNAc (saccharide donor) and an assay solution containing no donor and subsequently analyzing by HPLC, peaks appeared only in the assay solution containing UDP-GlcNAc was defined as products.
The assay solution after completion of the reaction was treated at 100° C. for 5 minutes and then centrifuged at 10,000×g for 5 minutes to obtain a supernatant, and a part thereof (5 μl) was subjected to HPLC.
The HPLC was carried out using TSK-gel ODS-80Ts Column (4.6×300 mm; manufactured by TOSOH) and 0.02 mol/l ammonium acetate buffer (pH 4.0) as the eluant at an elution temperature of 50° C. and a flow rate of 0.5 ml/min.
Detection and determination of products were carried out using a fluorescence spectrophotometer FP-920 (manufactured by JASCO Corporation) (excitation wavelength: 320 nm, radiation wavelength: 400 nm).

[3] = target: T1, G6sec2; experiment: β1,3-N-acetylglucosaminyltransferase activity of purified FLAG peptide-fused G6 polypeptide, 2-aminobenzamide-labeled oligosaccharide substrates; conditions: 2-aminobenzamide-labeled oligosaccharides, LNnT defined as 100%; for Relative activity (%) Test 2 G6sec2: enzyme prepared again
Protocol: (§1) β1,3-N-Acetylglucosaminyltransferase activity of the FLAG peptide-fused G6 polypeptide secreted and produced in insect cells was measured by using the eluate prepared in Example 8(6). The method of Example 7 was used for the activity measurement.
(§2) As substrates, oligosaccharides [LNnT, Galβ1-4GlcNAcβ1-3Galβ1-4GlcNAc (hereinafter referred to as “2LN”), Galβ1-4GlcNAcβ1-3Galβ1-4GlcNAcβ1-3Galβ1-4GlcNAc (hereinafter referred to as “3LN”), Galβ1-4GlcNAcβ1-3Galβ1-4GlcNAcβ1-3Galβ1-4GlcNAcβ1-3Galβ1-4GlcNAc (hereinafter referred to as “4LN”), Galβ1-4GlcNAcβ1-3Galβ1-4GlcNAcβ-3Galβ1-4GlcNAcβ1-3Galβ1-4GlcNAcβ1-3Galβ1-4GlcNAc (hereinafter referred to as “5LN”), or Galβ1-4(SO3-6)GlcNAcβ1-3Galβ1-4(SO3-6)GlcNAc (hereinafter referred to as “L2L2”)] were labeled with 2-aminobenzamide and used. 2-Aminobenzamide-labeling of oligosaccharides was carried out using SIGMA 2AB glycan labeling kit (manufactured by Oxford Glycoscience) according to the manufacture's instructions of the kit. LNnT was purchased from Oxford Glycosystems. Other oligosaccharides were obtained from Seikagaku Corporation.
Specifically, the reaction was carried out at 37° C. for 16 hours in 20 μl of an assay solution [150 mmol/l sodium cacodylate (pH 7.2), 50 mmol/l UDP-GlcNAc (manufactured by SIGMA), 0.4% Triton CF-54, 10 mmol/l MnCl2, 5 μmol/12-aminobenzamide-labeled sugar chain substrate, the above purified enzyme solution], and then the product was detected by high performance liquid chromatography (HPLC, details will be described below). As the enzyme, an eluate (1.5 μl) prepared from a culture supernatant of Sf21 infected with the recombinant virus derived from pVL1393-F2G6sec1 or an eluate (1.4 μl) prepared from a culture supernatant of Sf21 infected with the recombinant virus derived from pVL1393-F2G6sec2, prepared in Example 8(6), was used.
(§3) The assay solution after completion of the reaction was treated at 100° C. for 5 minutes and then mixed with 50 μl of pure water for HPLC and centrifuged at 10,000×g for 5 minutes to obtain the supernatant. To a tube containing the assay solution, 50 μl of pure water for HPLC was added again, the tube was washed, and suparnatant was obtained by centrifugation at 10,000×g for 5 minutes and was combined with the first supernatant. Next, the supernatant was passed through Ultrafree-MC column (manufactured by Millipore) and a portion thereof (10 μl) was subjected to HPLC. The Ultrafree-MC column was used according to the method described in the manufacture's instructions attached thereto.
(§4) The HPLC was carried out using TSK-gel ODS-80Ts Column (4.6×300 mm; manufactured by TOSOH) as a column and 0.02 mol/l ammonium acetate buffer containing 7% methanol (pH 4.0) as an eluant at an elution temperature of 50° C. and a flow rate of 1 ml/min.
(§5) The product was detected using a fluorescence spectrophotometer FP-920 (manufactured by JASCO Corporation) (excitation wavelength: 330 nm, radiation wavelength: 420 nm).
Also, a purified enzyme (G6sec2) was again prepared using the method shown in Example 8(6), its substrate specificity was again examined, and the results are also shown in Table 1 (Test 2 in Table 1). The purified enzyme (280 μl) was prepared from 30 ml of a culture supernatant of Sf21 infected with the recombinant virus derived from pVL1393-F2G6sec2, and the assay was carried out using a 4 μl portion thereof. Relative activities when the activity measured using 2-aminobenzamide-labeled LNnT as the substrate is defined as 100% are shown in the table.

[4] = target: T2, G6sec1 (Homo sapiens, UniProt Q9BYG0); experiment: as above; conditions: 2-aminobenzamide-labeled oligosaccharides; LNnT defined as 100%
T2 construct: made in house; host or cells: Sf21 insect cells infected with pVL1393-F2G6sec1-derived recombinant baculovirus
T2 sequence (Q9BYG0 36-378): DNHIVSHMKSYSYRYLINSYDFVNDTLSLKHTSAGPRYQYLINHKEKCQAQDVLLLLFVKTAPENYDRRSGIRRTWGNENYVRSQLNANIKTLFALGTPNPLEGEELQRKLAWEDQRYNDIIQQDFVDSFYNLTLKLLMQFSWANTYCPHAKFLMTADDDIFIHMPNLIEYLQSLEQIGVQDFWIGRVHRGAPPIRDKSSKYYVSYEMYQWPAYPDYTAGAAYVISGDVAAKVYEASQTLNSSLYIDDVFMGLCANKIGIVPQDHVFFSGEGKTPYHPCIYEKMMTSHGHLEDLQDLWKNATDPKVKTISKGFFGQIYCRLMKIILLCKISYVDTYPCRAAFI
Protocol: as §1, §2
Specifically, the reaction was carried out at 37° C. for 16 hours in 20 μl of an assay solution [150 mmol/l sodium cacodylate (pH 7.2), 50 mmol/l UDP-GlcNAc (manufactured by SIGMA), 0.4% Triton CF-54, 10 mmol/l MnCl2, 5 μmol/12-aminobenzamide-labeled sugar chain substrate, the above purified enzyme solution], and then the product was detected by high performance liquid chromatography (HPLC, details will be described below). […]
as §3, §4, §5

Row | Relative activity (%) [2] | Relative activity (%) Test 2 G6sec2 [3] | Relative activity (%) Test 1 G6sec1 [4] | Relative activity (%) Test 1 G6sec2 [3] | Molecule | other results
1 | – | – | – | – | galactosylceramide (Type II) | β1,3-N-acetylglucosaminyltransferase activity for the glycolipid [1]: did not show activity
2 | 4.9% | – | – | – | lacto-N-fucopentaose V [LNFP-V] | –
3 | – | 5.9% | – | – | Galβ1-4(SO3-6)GlcNAcβ1-3Galβ1-4(SO3-6)GlcNAc [L2L2] | –
4 | – | 12.3% | 9.3% | 11.5% | Galβ1-4GlcNAcβ1-3Galβ1-4GlcNAcβ-3Galβ1-4GlcNAcβ1-3Galβ1-4GlcNAcβ1-3Galβ1-4GlcNAc [5LN] | –
5 | 4.9% | – | – | – | lacto-N-fucopentaose III [LNFP-III] | –
6 | <0.05% | – | – | – | CC(=O)N[C@H]1[C@H](O[C@H]2[C@@H](O)[C@@H](CO)O[C@@H](O[C@@H]([C@H](O[C@@H]3O[C@@H](C)[C@@H](O)[C@@H](O)[C@@H]3O)[C@@H](O)C=O)[C@H](O)CO)[C@@H]2O)O[C@H](CO)[C@@H](O[C@@H]2O[C@@H](C)[C@@H](O)[C@@H](O)[C@@H]2O)[C@@H]1O[C@@H]1O[C@H](CO)[C@H](O)[C@H](O)[C@H]1O [LNDFH-II, lacto-N-difucohexaose II] | –
7 | – | 79.2% | 92.9% | 95.8% | CC(=O)N[C@H]1[C@H](O[C@H]2[C@@H](O)[C@@H](CO)O[C@@H](O[C@H]3[C@H](O)[C@@H](NC(C)=O)[C@H](O[C@H]4[C@@H](O)[C@@H](CO)O[C@@H](O[C@H]5[C@H](O)[C@@H](NC(C)=O)C(O)O[C@@H]5CO)[C@@H]4O)O[C@@H]3CO)[C@@H]2O)O[C@H](CO)[C@@H](O[C@@H]2O[C@H](CO)[C@H](O)[C@H](O)[C@H]2O)[C@@H]1O (stereo partly shown) [3LN, Galβ1-4GlcNAcβ1-3Galβ1-4GlcNAcβ1-3Galβ1-4GlcNAc] | –
8 | 5.5% | – | – | – | CC(=O)N[C@H]1[C@H](O[C@H]2[C@@H](O)[C@@H](CO)O[C@@H](O[C@H]3[C@H](O)[C@@H](O)C(O)O[C@@H]3CO)[C@@H]2O)O[C@H](CO)[C@@H](O)[C@@H]1O[C@@H]1O[C@H](CO)[C@H](O)[C@H](O)[C@H]1O (stereo partly shown) [LNT, lacto-N-tetraose] | –
9 | <0.05% | – | – | – | CC(=O)N[C@H]1[C@H](O[C@H]2[C@@H](O)[C@@H](CO)O[C@@H](O[C@@H]([C@H](O)[C@@H](O)C=O)[C@H](O)CO)[C@@H]2O)O[C@H](CO)[C@@H](O[C@@H]2O[C@@H](C)[C@@H](O)[C@@H](O)[C@@H]2O)[C@@H]1O[C@@H]1O[C@H](CO)[C@H](O)[C@H](O)[C@H]1O [LNFP-II, lacto-N-fucopentaose II] | –
10 | – | 10.0% | 13.2% | 21.5% | Galβ1-4GlcNAcβ1-3Galβ1-4GlcNAcβ1-3Galβ1-4GlcNAcβ1-3Galβ1-4GlcNAc [4LN] | –
